In PMC12892976, “Alkylation-based optimization of antifungal FPPS inhibitors yields a potent, broad-spectrum lipophilic zoledronate derivative” (mBio, 2025):

What was measured:
[1] = test system: Aspergillus frankstonensis; experiment: checkerboard drug interaction (FICI, MICc);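 further: simplified diagonal checkerboard screen pairing antifungals with FPPS inhibitors, FICI calculated using the Loewe additivity model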
Description: (§1) Drug interactions between antifungals and FPPS inhibitors were investigated using a simplified checkerboard diagonal screening method ([45]). […] FICIs were determined according to the Loewe additivity model ([17]).

[2] = test system: Cryptococcus deneoformans; experiment: MIC broth microdilution (CLSI); format: cell-based; settings: Cryptococcus deneoformans JEC21
Description: Antifungal susceptibility was determined by broth microdilution according to the CLSI guidelines described in M27-Ed4 ([16]).

Mucor circinelloides = experiment: checkerboard drug interaction (FICI, MICc); format: cell-based;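 further: simplified diagonal checkerboard screen pairing antifungals with FPPS inhibitors, FICI calculated under the Loewe additivity model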
Description: as §1

Aspergillus niger = experiment: checkerboard drug interaction (FICI, MICc); format: cell-based;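 further: simplified diagonal checkerboard screen pairing antifungals with FPPS inhibitors, FICI calculated under the Loewe additivity model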
Description: as §1

Candida parapsilosis = experiment: checkerboard drug interaction (FICI, MICc); format: cell-based;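 further: simplified diagonal checkerboard screen pairing antifungals with FPPS inhibitors, with FICI computed under the Loewe additivity model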
Description: as §1

Trichophyton soudanense = experiment: checkerboard drug interaction (FICI, MICc); format: cell-based;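 further: simplified diagonal checkerboard screen pairing antifungals with FPPS inhibitors, FICI computed under the Loewe additivity model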
Description: as §1

[3] = test system: Trichophyton rubrum biofilms; experiment: biofilm XTT reduction assay (SIC80, SFICI); format: cell-based; settings: for SICc / SFICI: Trichophyton rubrum
Description: (§2) Biofilms of Cryptococcus were seeded in DMEM, and all other species were seeded in RPMI-1640.

[4] = test system: Cryptococcus deuterogattii biofilms; experiment: biofilm XTT reduction assay (SIC80, SFICI); settings: for SICc / SFICI: Cryptococcus deuterogattii
Description: as §2

Cryptococcus gattii = experiment: checkerboard drug interaction (FICI, MICc); format: cell-based;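 further: simplified diagonal checkerboard screen pairing antifungals with FPPS inhibitors, FICI computed under the Loewe additivity model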
Description: as §1

Fusarium solani = experiment: checkerboard drug interaction (FICI, MICc); format: cell-based;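 further: simplified diagonal checkerboard screen pairing antifungals with FPPS inhibitors, FICI derived under the Loewe additivity model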
Description: as §1

Candida auris = experiment: checkerboard drug interaction (FICI, MICc); format: cell-based;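 further: simplified diagonal checkerboard screen pairing antifungals with FPPS inhibitors, with FICI computed under the Loewe additivity model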
Description: as §1

[5] = test system: 38 species of clinically relevant fungi; experiment: MIC summary across 38 species of clinically relevant fungi; format: cell-based; settings: 38 fungal species
Source text: […]; Table S3). […]. […] […]. […] […].

[6] = test system: Candida albicans biofilms; experiment: biofilm XTT reduction assay (SIC80, SFICI); settings: FLC:10-ZOL combination, Candida albicans
Description: as §2

CCCCCCCCCCn1cc[n+](CC(O)(P(=O)(O)O)P(=O)(O)O)c1 [10-ZOL, Decyl-zoledronate]
FICI ([1]; 5FC:10-ZOL): 3
FICI ([1]; CAS:10-ZOL): 1.09
FICI ([1]; ITR:10-ZOL): 1
FICI ([1]; VOR:10-ZOL): ≥4
bisphosphonate MICc ([1]; with 5FC): 1
bisphosphonate MICc ([1]; with AMB): 2
bisphosphonate MICc ([1]; with CAS): 0.125
bisphosphonate MICc ([1]; with FLC): 0.5
bisphosphonate MICc ([1]; with ITR): 0.5
bisphosphonate MICc ([1]; with KET): 0.5
bisphosphonate MICc ([1]; with VOR): 2
MIC / MEC [2]: 1 mg/L
FICI (Mucor circinelloides; 5FC:10-ZOL): ≥4
FICI (Mucor circinelloides; AMB:10-ZOL): 2
FICI (Mucor circinelloides; CAS:10-ZOL): ≥4
FICI (Mucor circinelloides; ITR:10-ZOL): 1.5
bisphosphonate MICc (Mucor circinelloides; with 5FC): 1
bisphosphonate MICc (Mucor circinelloides; with AMB): 1
bisphosphonate MICc (Mucor circinelloides; with CAS): 0.5
bisphosphonate MICc (Mucor circinelloides; with FLC): 1
bisphosphonate MICc (Mucor circinelloides; with ITR): 1
bisphosphonate MICc (Mucor circinelloides; with KET): 0.125
bisphosphonate MICc (Mucor circinelloides; with VOR): 0.125
FICI (Aspergillus niger; 5FC:10-ZOL): ≥4
FICI (Aspergillus niger; AMB:10-ZOL): 2.17
FICI (Aspergillus niger; CAS:10-ZOL): 1
bisphosphonate MICc (Aspergillus niger; with 5FC): 1
bisphosphonate MICc (Aspergillus niger; with AMB): 1
bisphosphonate MICc (Aspergillus niger; with CAS): 2
bisphosphonate MICc (Aspergillus niger; with FLC): 0.5
bisphosphonate MICc (Aspergillus niger; with ITR): 1
bisphosphonate MICc (Aspergillus niger; with KET): 2
bisphosphonate MICc (Aspergillus niger; with VOR): 0.5
FICI (Candida parapsilosis; CAS:10-ZOL): 0.5
bisphosphonate MICc (Candida parapsilosis; with 5FC): 1
bisphosphonate MICc (Candida parapsilosis; with AMB): 0.125
bisphosphonate MICc (Candida parapsilosis; with CAS): 0.25
bisphosphonate MICc (Candida parapsilosis; with FLC): 0.25
bisphosphonate MICc (Candida parapsilosis; with ITR): 0.125
bisphosphonate MICc (Candida parapsilosis; with KET): 0.25
bisphosphonate MICc (Candida parapsilosis; with VOR): 0.25
FICI (Trichophyton soudanense; 5FC:10-ZOL): 2
FICI (Trichophyton soudanense; FLC:10-ZOL): 0.28
FICI (Trichophyton soudanense; VOR:10-ZOL): 0.61
bisphosphonate MICc (Trichophyton soudanense; with 5FC): 2
bisphosphonate MICc (Trichophyton soudanense; with AMB): 0.25
bisphosphonate MICc (Trichophyton soudanense; with CAS): 0.5
bisphosphonate MICc (Trichophyton soudanense; with FLC): 0.5
bisphosphonate MICc (Trichophyton soudanense; with ITR): 0.125
bisphosphonate MICc (Trichophyton soudanense; with KET): 1
bisphosphonate MICc (Trichophyton soudanense; with VOR): 0.25
FICI range (biofilm) ([3]; azoles with 10-ZOL, Trichophyton rubrum biofilms): 0.38–0.50
SICc ([3]; biofilm, FLC:10-ZOL combination): 16 µg/mL
SFICI ([3]; biofilm, FLC:10-ZOL): 0.38
SICc ([3]; biofilm, ITR:10-ZOL combination): 16 µg/mL
SFICI ([3]; biofilm, ITR:10-ZOL): 0.38
SICc ([3]; biofilm, KET:10-ZOL combination): 16 µg/mL
SFICI ([3]; biofilm, KET:10-ZOL): 0.50
SIC80 ([3]; biofilm, agent alone, Trichophyton rubrum 213): 64 µg/mL
SICc ([4]; FLC:10-ZOL combination): 32 µg/mL
SFICI ([4]; FLC:10-ZOL): 1.00
SICc ([4]; ITR:10-ZOL combination): 32 µg/mL
SFICI ([4]; ITR:10-ZOL): 1.00
SICc ([4]; KET:10-ZOL combination): 16 µg/mL
SFICI ([4]; KET:10-ZOL): 0.38
SIC80 ([4]; agent alone, Cryptococcus deuterogattii R265): 64 µg/mL
FICI (Cryptococcus gattii; 5FC:10-ZOL): 1
FICI (Cryptococcus gattii; CAS:10-ZOL): 0.5
FICI (Cryptococcus gattii; FLC:10-ZOL): 1.5
FICI (Cryptococcus gattii; KET:10-ZOL): 0.5
FICI (Cryptococcus gattii; VOR:10-ZOL): 0.8
bisphosphonate MICc (Cryptococcus gattii; with 5FC): 0.25
bisphosphonate MICc (Cryptococcus gattii; with AMB): 0.125
bisphosphonate MICc (Cryptococcus gattii; with CAS): 0.125
bisphosphonate MICc (Cryptococcus gattii; with FLC): 0.5
bisphosphonate MICc (Cryptococcus gattii; with ITR): 0.125
bisphosphonate MICc (Cryptococcus gattii; with KET): 0.125
bisphosphonate MICc (Cryptococcus gattii; with VOR): 0.125
FICI (Fusarium solani; 5FC:10-ZOL): ≥4
FICI (Fusarium solani; CAS:10-ZOL): 2
FICI (Fusarium solani; VOR:10-ZOL): 0.53
bisphosphonate MICc (Fusarium solani; with 5FC): 1
bisphosphonate MICc (Fusarium solani; with AMB): 0.25
bisphosphonate MICc (Fusarium solani; with CAS): 4
bisphosphonate MICc (Fusarium solani; with FLC): 0.5
bisphosphonate MICc (Fusarium solani; with ITR): 0.5
bisphosphonate MICc (Fusarium solani; with KET): 2
bisphosphonate MICc (Fusarium solani; with VOR): 0.125
FICI (Candida auris; 5FC:10-ZOL): 1.5
FICI (Candida auris; FLC:10-ZOL): 0.5
bisphosphonate MICc (Candida auris; with 5FC): 1
bisphosphonate MICc (Candida auris; with AMB): 0.25
bisphosphonate MICc (Candida auris; with CAS): 0.5
bisphosphonate MICc (Candida auris; with FLC): 0.5
bisphosphonate MICc (Candida auris; with ITR): 0.125
bisphosphonate MICc (Candida auris; with KET): 1
bisphosphonate MICc (Candida auris; with VOR): 1
overall MIC range [5]: 0.5 to 8 µg/mL
MIC ([5]; read-out: GM MIC): 1.39 ± 1.6 µg/mL
SICc [6]: 32 µg/mL
